Reference: patent US4416892A, “Method of treating hypersensitivity disease with benzoxazole derivatives” (Lilly Industries Limited, priority 1981, dated 1983)

Columns and labels:
[1] = tested on: SRS-A release; assay: guinea-pig chopped lung test (inhibition of SRS-A / mediator release); type: cell-based; settings: Cavia porcellus, 0.25 h; 3×10^-5 M; ovalbumin-sensitised guinea pig lung, antigen challenge, 37° C., 15 mins; mean of four samples
Procedure: These tests are well-recognised as indicative of anti-allergy activity in humans and mammals in general. Compounds were tested in the guinea pig chopped lung test referred to above. […] Male albino guinea pigs (250-350 g) were sensitised with ovalbumin (100 mg s/c+100 mg i p.) and three weeks later killed, their lungs removed and perfused clear of blood with Tyrode's solution. The lungs were chopped into 0.5 mm cubes and divided into 400 mg aliquots. After washing and equilibration at 37° C., the aliquots were challenged with antigen in the presence or absence of the test compound. One control group was not challenged and was used to assess non-anaphylactic SRS-A release. Following incubation with rocking at 37° C. for 15 mins, each supernatant was removed and bio-assayed. Results are expressed as the percentage inhibition of SRS-A release after exposure to 3×10^-5M solutions of test compound. Each result is the mean of four samples.

[2] = tested on: allergic bronchospasm; assay: Herxheimer test (allergic bronchospasm in sensitised guinea pigs); type: in vivo, guinea pig; settings: dose 50 (first column; head is a drawing), oral, 4 hours before ovalbumin challenge, mepyramine 0.5 mg/kg s.c.; ratio of 1.4 or greater significant
Procedure: Male guinea pigs were sensitised with ovalbumin and then exposed to ovalbumin aerosol (1% w/v solution) in an observation chamber. The animals were kept in the exposure chamber until symptoms of respiratory distress, terminating in a characteristic convulsive cough. The time of exposure is the "collapse time". […] Accordingly, the response to each compound in the presence of mepyramine (0.5 mg/kg s.c.) given half an hour before challenge was studied. The compound itself was given orally four hours before antigen challenge. A protection ratio of 1.4 or greater is considered significant.

CC(C(=O)O)c1ccc2nc(-c3ccccc3Cl)oc2c1 (stereo not drawn) [2-(2-chlorophenyl)-α-methyl-6-benzoxazoleacetic acid]
inhibition at 30 µM [1]: 16%

CC(C(=O)O)c1ccc2oc(-c3cccc(C(F)(F)F)c3)nc2c1 (stereo not drawn) [2-(3-trifluoromethylphenyl)-α-methyl-5-benzoxazoleacetic acid]
inhibition at 30 µM [1]: 27%

CC(C(=O)O)c1ccc2oc(-c3ccc(Cl)cc3)nc2c1 (stereo not drawn) [2-(4-chlorophenyl)-α-methyl-5-benzoxazoleacetic acid]
protection ratio [2]: 2.7
inhibition at 30 µM [1]: 62%

CC(C(=O)O)c1ccc2nc(-c3ccc(Cl)cc3)oc2c1 (stereo not drawn) [2-(4-chlorophenyl)-α-methyl-6-benzoxazoleacetic acid]
inhibition at 30 µM [1]: 38%

CC(C(=O)O)c1ccc2oc(-c3ccc(F)cc3)nc2c1 (stereo not drawn) [2-(4-fluorophenyl)-α-methyl-5-benzoxazoleacetic acid]
inhibition at 30 µM [1]: 36%
